“Also recorded” adds a separate entry of the source.

Experimental findings from patent US6576647B2, “Pseudopolymorph of (—)-cis-2-(2-chlorophenyl)-5,7-dihydroxy-8[4R-(3S-hydroxy -1-methyl)piperidinyl]-4H-1-benzopyran-4-one” (Aventis Pharmaceuticals Inc., priority 2000, dated 2003) are described below.

Data set [1] in a line: Variable humidity X-ray powder diffraction (crystallinity versus relative humidity). To be noted: variable humidity XRPD; hydrochloride. It is filed as physicochemical. An excerpt: X-ray Powder Diffraction (XRPD) patterns were taken on a Scintag XDS 2000 θ/θ diffractometer operating with copper radiation at 45 kV and 40 mA, using a Kevex Psi Peltier-cooled silicon detector. Source slits of 2 and 4 mm, and detector slits of 0.5 and 0.3 mm were used for data collection. Form II samples were gently milled using an agate mortar and pestle for approximately one minute, placed in a platinum sample pan, and leveled using a glass microscope slide. Samples taken during or post hygroscopicity testing were not milled due to the limited amount of sample available. In each case, powder diffraction patterns were scanned from 2° to 42° 2θ at 1°/minute. Calibration of the XDS 2000 was verified using Silicon powder.
For variable relative humidity experiments, the larger capacity DVS-2 Surface Measurement Systems Dynamic Vapor Sorption analyzer was used. Using a flow rate of 500 cc/min, Form II was held at desired RH settings and sampled periodically for XRPD analysis. Unmilled material was placed in the platinum sample pan and leveled using a glass microscope slide prior to analysis using the above conditions.

Data set [2] is described as follows: Hygroscopicity screening by Dynamic Water Vapor Sorption Analysis (DVS). It is filed as physicochemical. The note with it: for weight gain: 25° C. and 40° C.; for hygroscopicity assessment: conclusion from DVS weight gain, hydrochloride. Here is the method:
Hygroscopicity Screening—Comparison of Form I and Form II
Dynamic Vapor Sorption (DVS) Analysis Studies were Conducted on Form II Versus Form I.
Dynamic Water Vapor Sorption Analysis (DVS)
Form II was studied at 25° C. using a Surface Measurement Systems Dynamic Vapor Sorption DVS-1 analyzer. A sample in the range of about 14.8 mg was placed in a tared quartz sample holder at an initial ambient room humidity setting of about 48% Relative Humidity (RH). A total wet/dry nitrogen flow rate of 200 cc/min was used throughout the study. The following full cycle program was initiated: 30 min at the initial ambient RH, followed by settings of 0, 20, 40, 60, 80, 90, 95 and 98% RH, with exposure time at each humidity set point dependent upon dm/dt being less than 0.001% for 60 min. The maximum time allowed at any one humidity set point was 24 hours. For a full cycle, data collection took about 4 days to complete. After the full cycle the sample was maintained at the same RH as the initial ambient starting RH.
Form I was studied at 25° C. and 40° C. using the DVS-1 analyzer. Data was collected over two full cycles. Samples of 10.4 and 16.7 mg were placed into respective tared quartz sample holders at an initial ambient room humidity setting of about 46% RH and 33% RH, respectively. For this study, an additional 75% RH set point was used. For 2 full cycles, data collection took about 7 days at 25° C. and about 17 days at 40° C. to complete. After completion of each 2 cycle study, the samples were maintained at the same RH as the initial ambient starting RH.

In the case of `CN1CC[C@H](c2c(O)cc(O)c3c(=O)cc(-c4ccccc4Cl)oc23)[C@H](O)C1.Cl` (relative stereo) [Form I, (−)-cis-2-(2-chlorophenyl)-5,7-dihydroxy-8[4R-(3S-hydroxy-1-methyl)piperidinyl]-4H-1-benzopyran-4-one hydrochloride], the “crystallinity as the humidity is increased” value in data set [1] is reported as “retains its crystallinity until extremely high relative humidity is reached”. Besides, the weight gain entry in data set [2] (DVS, above 90% RH) is “about 30%”; in data set [2] (DVS, through about 75% RH), 1-2%. For the same molecule, in data set [2], the hygroscopicity assessment entry is reported as “hygroscopic above 75% RH; also recorded: less hygroscopic than Form II”.

For the molecule `CN1CC[C@H](c2c(O)cc(O)c3c(=O)cc(-c4ccccc4Cl)oc23)[C@H](O)C1.Cl` (relative stereo) [Form II, (−)-cis-2-(2-chlorophenyl)-5,7-dihydroxy-8[4R-(3S-hydroxy-1-methyl)piperidinyl]-4H-1-benzopyran-4-one hydrochloride, reference compound], the “crystallinity as the humidity is increased” value in data set [1] is listed as “apparent decrease in crystallinity”. Besides, in data set [2] (DVS, above 60% relative humidity, 25° C.), the additional weight gain is listed as 15-20%. For the same molecule, in data set [2], the hygroscopicity assessment entry was “hygroscopic”.
